Laboratory results reported in US20260083725A1, “SIGMARI LIGAND FOR THE TREATMENT OF PANCREATIC CANCER” (INSTITUT NATIONAL DE LA SANTÉ ET DE LA RECHERCHE MÉDICALE, priority 2022, published 2026).

Tests used:
SK2 channel = assay: Whole cell patch clamp recording of SK2 current in pancreatic cancer cells; assay type: cell-based, human; details: for CAF-CM-induced SK2 current: PANC-1 cells incubated with CAF-CM plus inhibitor or antibody
Procedure: Electrophysiological recordings in HEK293-T, PANC-1 and MiaPaCa-2 cells were performed in the whole cell configuration of the patch clamp technique at room temperature. Cells were bathed in a solution containing: 5 mM KCl, 145 mM NaCl, 1 mM MgCl2, 2 mM CaCl2, and 10 mM Hepes (pH adjusted to 7.4 with HCl, 300 mosm/L). Soft glass patch electrodes (Brand, Wertheim, Germany) were made on a horizontal pipette puller (P-97, Sutter Instrument Co., Novato, CA) to achieve a final resistance ranging from 3 to 5 MΩ. The internal solution was: 145 mM KCl, 1 mM MgCl2, 0.87 mM CaCl2, 1 mM EGTA, 10 mM Hepes, 1 mM ATP (pH adjusted to 7.2 with KOH, 308 mosm/L, pCa 6). Recordings were performed at room temperature in the voltage clamp mode using an PC-controlled EPC 9 patch-clamp amplifier (HEKA, Lambrecht/Pfalz, Germany). Currents were acquired and analyzed with Pulse and Pulsefit software (HEKA). Signal were filtered at 10 kHz and digitalized at 20 kHz. Currents were elicited by voltage ramps protocols (from −120 to +60 mV). Current density was measured at 0 mV. For the electrophysiological study of the SK2 mutations, HEK293-T were transfected with the different constructions and the HA-myr-AKT using calcium phosphate and recorded 24 h after transfection.

Panc-1 cells = assay: Proliferation and viability assays on Panc-1 cells; assay type: cell-based; details: control Panc-1 cells or cells silenced for Sig1R or SK2
SK2/AKT interaction = assay: In situ proximity ligation assay of SK2/AKT interaction in PANC-1 cells; assay type: cell-based, human; details: PANC-1 Sh RD cells, overnight CAF-CM + 1(S) ligand 1 μM; FIG. 1B
Procedure: The DuoLink in situ Proximity Ligation Assay (PLA) (Olink Bioscience, Uppsala, Sweden) was used to detect the interaction between SK2 and different candidates' partner (C-myc Sig-1R, EGFR, AKT, β1 integrin). PANC-1 cells expressing a stable Sh R D, Sh Sig-1R, or Sh SK2 were seeded on poly-Lysine (40 μg/mL) coated microscope slides. Cells were fixed with PFA 4% and permeabilized with triton X100 (0.05%). Cells were immunolabeled with primary antibodies: anti SK2 (1:100) and anti C-myc, (1:100) or anti EGFR (1:100), or anti AKT (1:100), or anti β1 integrin (1:100) for 1 h at 37° C. The secondary antibodies with attached PLA probes were supplied in the Duolink kit. Cellular PLA images were captured using an inverted Zeiss Axio Observer Z1 microscope (Zeiss, Jena, Germany). 6 to 10 fields have been imaged and quantified per conditions.

KICpdx1 mice = assay: Endogenous PDAC mice model (KICpdx1 mice) treated with 1(S) ligand; assay type: in vivo, mouse; details: for median survival: once a week, non-treated 67 days
Procedure: Pdx1-Cre, Ink4afl/fl LSL-KrasG12D (KICpdx1) mice were obtained by crossing of the following strains: Pdx1-Cre, Ink4afl/fl, and LSL-KrasG12D mice provided by D. Melton (Harvard Stem Cell Institute, Cambridge, Massachusetts, USA), R. Depinho (Dana-Farber Cancer Institute, Boston, Massachusetts, USA), and T. Jacks (David H. Koch Institute for Integrative Cancer Research, Cambridge, Massachusetts, USA), respectively. PDAC-bearing 5- and 8-week-old mice were treated once a week with vehicle or 1(S) ligand (0.1 mg/injection/mouse) until experimental endpoint mice reaching sacrificing time or mice reaching physiological endpoints (cachexia criteria, limited movement, drinking or feeding of the mice). No exclusion has to be reported in all experiments as no mice reached a criteria of exclusion such as a fight-related wound or the development of ear inflammation.. To study final tumor volume, mice were euthanized at 9 weeks and tumors were weighted and fixed in 4% (wt/vol) formaldehyde for immunochemistry. For survival analyses, mice were euthanized when they developed ethical clinical end points defined by our institutional guidelines and European animal protection law. For all experiments, sample size was predicted following a Mann-Whitney statistical approach involving power calculation of 0.8 with a FDR of 0.05. A minimum number of 7 mice per group was predicted as able to reach significance. Bonferroni post-hoc test was used for multiples test comparison (two variance with time and/or treatment). Experimental technicians were proceeding with injections while personnel related to mice follow-up worked in a blinded approach. All animal care and experimental procedures were performed in agreement with the Animal Ethics Committee of Marseille then the French ministry of research and innovation under the reference Apafis#16998-2018100814458519.

[1] = KICpdx1 mice treated from 5 weeks, end-point at 9 weeks, versus untreated

C#Cc1cccc(Nc2ncnc3cc(OCCOC)c(OCCOC)cc23)c1 [Erlotinib, reference compound]
CAF-CM-induced SK2 current (SK2 channel): suppressed

CCN(CC)CCCCN1c2ccccc2Oc2ccc(Cl)cc21 [DEBC, reference compound]
CAF-CM-induced SK2 current (SK2 channel): suppressed

CN(CCCN1C(=O)[C@@H]2Cc3ccccc3CN2C1=O)Cc1ccccc1 [Compound 1(S)]
effect on proliferation and viability (Panc-1 cells): does not exhibit any effect
CAF-CM mediated activation of SK2 (ISK2 current) (SK2 channel; PANC-1 cells exposed overnight to CAF-CM + 1(S) ligand 1 μM, patch-clamp, FIG. 1A): abolished
association of SK2 and AKT (PLA, interactions per cell) (SK2/AKT interaction): prevented
tumor progression (KICpdx1 mice; KICpdx1 mice treated from 5 weeks old, before the onset of PDAC): significantly delayed
median survival (KICpdx1 mice; KICpdx1 mice treated from 5 weeks old, 0.1 mg/injection/mouse, FIG. 1D): 84 days
histological examination of pancreas (KICpdx1 mice; KICpdx1 mice treated from 5 weeks, end-point at 9 weeks): almost lack of malignant lesions
ECM density (trichrome labelling, desmoplasia) (KICpdx1 mice; [1]): lower
number of EMT-reprogramming epithelial cells (Pan-CK/αSMA co-staining) (KICpdx1 mice; [1]): lower
reduction of pancreas weight compared to non-treated (KICpdx1 mice; KICpdx1 mice treated from 5 weeks, end-point at 9 weeks, FIG. 1F): 69%
pancreas weight (KICpdx1 mice; KICpdx1 mice treated from 5 weeks, end-point at 9 weeks, non-treated 1.44 g (±0.42), FIG. 1F): 0.45 g
median survival (KICpdx1 mice; KICpdx1 mice treated from 8 weeks of age (PDAC already developed), FIG. 1H): 77 days
metastasis onset (KICpdx1 mice; mouse models of PDAC treated with 1(S)): reduced
